According to patent US20170240556A1, “BIFLUORODIOXALANE-AMINO-BENZIMIDAZOLE KINASE INHIBITORS FOR THE TREATMENT OF CANCER, AUTOIMMUNEINFLAMMATION AND CNS DISORDERS” (4SC DISCOVERY GMBH, priority 2012, published 2017):

Assays:
[1] = target: Casein kinase 1 delta (CSKN1D) (Homo sapiens, UniProt P48730); assay: Casein kinase assay, CK1 delta; format: biochemical; conditions: recombinant CSKN1D 5 nM, ATP 10 μM
[2] = target: Casein kinase 1 epsilon (CSKN1E) (Homo sapiens, UniProt P49674); assay: Casein kinase assay, CK1 epsilon; format: biochemical; conditions: recombinant CSKN1E 30 nM, ATP 10 μM
Sequence of Casein kinase 1 epsilon (CSKN1E) (P49674 whole entry): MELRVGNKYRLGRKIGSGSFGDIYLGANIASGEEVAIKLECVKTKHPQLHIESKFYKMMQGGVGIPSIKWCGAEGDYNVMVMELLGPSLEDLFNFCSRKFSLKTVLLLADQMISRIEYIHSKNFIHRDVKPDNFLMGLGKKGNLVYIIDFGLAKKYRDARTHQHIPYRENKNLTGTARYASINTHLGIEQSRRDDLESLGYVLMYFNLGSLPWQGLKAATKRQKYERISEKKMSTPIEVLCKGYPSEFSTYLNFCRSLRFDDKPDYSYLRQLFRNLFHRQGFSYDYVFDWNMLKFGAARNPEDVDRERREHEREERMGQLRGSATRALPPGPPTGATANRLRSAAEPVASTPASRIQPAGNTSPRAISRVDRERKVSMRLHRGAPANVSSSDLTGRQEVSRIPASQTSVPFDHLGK
Procedure: The recombinant protein Casein kinase 1 delta (CSKN1D) was added to the substrate solution in a concentration of 5 nM and gently mixed. Dilution series in of compounds of the present invention in DMSO were added to the reaction mixture, followed after 20 min by addition of a mixture of ATP and ^33P-ATP (specific activity 0.01 μCi/μl final) to a final concentration of 10 μM. Reactions were carried out at 25° C. for 120 min, followed by spotting the reactions onto P81 ion exchange filter paper. Unbound phosphate was removed by washing of the filters in 0.75% phosphoric acid. […] IC50 values and curve fits were obtained using the program Prism® (Graph Pad Software).
The above assay was also used to determine the inhibitory capacity of the compounds of the present invention on Casein Kinase 1 epsilon, wherein instead of CSKN1D, recombinant protein Casein kinase 1 epsilon (CSKN1E) was added to the substrate solution in a concentration of 30 nM and gently mixed.

Sequence of Casein kinase 1 delta (CSKN1D) (P48730 whole entry): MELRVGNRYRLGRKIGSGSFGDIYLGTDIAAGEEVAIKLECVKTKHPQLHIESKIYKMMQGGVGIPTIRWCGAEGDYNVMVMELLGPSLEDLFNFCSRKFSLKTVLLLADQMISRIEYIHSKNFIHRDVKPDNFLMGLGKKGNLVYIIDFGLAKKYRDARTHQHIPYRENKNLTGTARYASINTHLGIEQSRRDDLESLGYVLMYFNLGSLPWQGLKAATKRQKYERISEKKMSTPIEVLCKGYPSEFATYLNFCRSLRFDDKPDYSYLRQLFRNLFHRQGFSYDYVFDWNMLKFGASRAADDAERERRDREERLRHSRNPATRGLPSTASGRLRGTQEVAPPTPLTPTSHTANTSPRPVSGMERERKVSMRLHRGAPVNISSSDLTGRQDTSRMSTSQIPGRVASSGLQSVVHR

SMILES	IC50 [1] [nM]	IC50 [2] [nM]
O=C(Nc1nc2cc3c(cc2[nH]1)OC(F)(F)O3)c1csc2ccccc12 [Compound 31, N-(2,2-difluoro-5H-[1,3]dioxolo[4′,5′:4,5]benzo[1,2-d]imidazol-6-yl)benzo[b]thiophene-3-carboxamide]	< 200	200 to 1000
Nc1c[nH]c(C(=O)Nc2nc3cc4c(cc3[nH]2)OC(F)(F)O4)c1 [Compound 15B, 4-Amino-N-(2,2-difluoro-5H-[1,3]dioxolo[4′,5′:4,5]benzo[1,2-d]imidazol-6-yl)-1H-pyrrole-2-carboxamide]	< 200	200 to 1000
Cc1cc(C(F)(F)F)nc(Nc2nc(C(=O)Nc3nc4cc5c(cc4[nH]3)OC(F)(F)O5)cs2)n1 [Compound 25, N-(2,2-difluoro-5H-[1,3]dioxolo[4′,5′:4,5]benzo[1,2-d]imidazol-6-yl)-2-((4-methyl-6-(trifluoromethyl)pyrimidin-2-yl)amino)thiazole-4-carboxamide]	> 1000	> 1000
O=C(Nc1nc2cc3c(cc2[nH]1)OC(F)(F)O3)c1csc(Br)c1 [Compound 29, 5-bromo-N-(2,2-difluoro-5H-[1,3]dioxolo[4′,5′:4,5]benzo[1,2-d]imidazole-6-yl)-thiophene-3-carboxamide]	< 200	< 200
O=C(Nc1nc2cc3c(cc2[nH]1)OC(F)(F)O3)c1csc(-c2ccc(C(F)(F)F)cc2)n1 [Compound 5, N-(2,2-difluoro-5H-[1,3]dioxolo[4′,5′:4,5]benzo[1,2-d]imidazol-6-yl)-2-(4-(trifluoromethyl)phenyl)thiazole-4-carboxamide]	> 1000	> 1000
O=C(Nc1nc2cc3c(cc2[nH]1)OC(F)(F)O3)c1csc(NC(=O)c2ccco2)n1 [Compound 11, N-(2,2-difluoro-5H-[1,3]dioxolo[4′,5′:4,5]benzo[1,2-d]imidazol-6-yl)-2-(furan-2-carboxamido)thiazole-4-carboxamide]	< 200	< 200
O=C(Nc1nc2cc3c(cc2[nH]1)OC(F)(F)O3)c1ccoc1 [Compound 32, N-(2,2-difluoro-5H-[1,3]dioxolo[4′,5′:4,5]benzo[1,2-d]imidazol-6-yl)furan-3-carboxamide]	200 to 1000	< 200
O=C(Nc1nc2cc3c(cc2[nH]1)OC(F)(F)O3)c1csc(-c2cccc(Cl)c2)n1 [Compound 17B, 2-(3-chlorophenyl)-N-(2,2-difluoro-5H-[1,3]dioxolo[4′,5′:4,5]benzo[1,2-d]imidazol-6-yl)thiazole-4-carboxamide]	< 200	200 to 1000
O=C(Nc1nc2cc3c(cc2[nH]1)OC(F)(F)O3)c1cocn1 [Compound 35, N-(2,2-difluoro-5H-[1,3]dioxolo[4′,5′:4,5]benzo[1,2-d]imidazol-6-yl)-oxazole-4-carboxamide]	200 to 1000	> 1000
O=C(Nc1nc2cc3c(cc2[nH]1)OC(F)(F)O3)c1nnn(-c2cccc(F)c2)c1C(F)(F)F [Compound 36, N-(2,2-difluoro-5H-[1,3]dioxolo[4′,5′:4,5]benzo[1,2-d]imidazol-6-yl)-1-(3-fluorophenyl)-5-(trifluoromethyl)-1H-1,2,3-triazole-4-carboxamide]	200 to 1000	> 1000
O=C(Nc1nc2cc3c(cc2[nH]1)OC(F)(F)O3)c1nsc(NC(=O)c2ccccc2OC(F)(F)F)n1 [Compound 17, N-(2,2-difluoro-5H-[1,3]dioxolo[4′,5′:4,5]benzo[1,2-d]imidazol-6-yl)-5-(2-(trifluoromethoxy)benzamido)-1,2,4-thiadiazole-3-carboxamide]	< 200	< 200
Cn1cccc1C(=O)Nc1nc2cc3c(cc2[nH]1)OC(F)(F)O3 [Compound 20B, N-(2,2-Difluoro-5H-[1,3]dioxolo[4′,5′:4,5]benzo[1,2-d]imidazol-6-yl)-1-methyl-1H-pyrrole-2-carboxamide]	200 to 1000	> 1000
Cc1nn(-c2ccccc2)c(C)c1C(=O)Nc1nc2cc3c(cc2[nH]1)OC(F)(F)O3 [Compound 15, N-(2,2-difluoro-5H-[1,3]dioxolo[4′,5′:4,5]benzo[1,2-d]imidazol-6-yl)-3,5-dimethyl-1-phenyl-1H-pyrazole-4-carboxamide]	> 1000	> 1000
O=C(Nc1nc2cc3c(cc2[nH]1)OC(F)(F)O3)c1csc(-c2ccccc2)n1 [Compound 4, N-(2,2-difluoro-5H-[1,3]dioxolo[4′,5′:4,5]benzo[1,2-d]imidazol-6-yl)-2-phenylthiazole-4-carboxamide]	200 to 1000	200 to 1000

Now from value to compound:

IC50 [1] [nM]	IC50 [2] [nM]	SMILES
> 1000	> 1000	O=C(Nc1nc2cc3c(cc2[nH]1)OC(F)(F)O3)c1coc(-c2ccc3c(c2)CCO3)n1 [Compound 40, N-(2,2-difluoro-5H-[1,3]dioxolo[4′,5′:4,5]benzo[1,2-d]imidazol-6-yl)-2-(2,3-dihydrobenzofuan-5-yl)oxazole-4-carboxamide]
> 1000	> 1000	Cc1nnsc1C(=O)Nc1nc2cc3c(cc2[nH]1)OC(F)(F)O3 [Compound 42, N-(2,2-difluoro-5H-[1,3]dioxolo[4′,5′:4,5]benzo[1,2-d]imidazol-6-yl)-4-methyl-1,2,3-thiadiazole-5-carboxamide]
< 200	> 1000	Cc1nn(C)cc1-c1cc(C(=O)Nc2nc3cc4c(cc3[nH]2)OC(F)(F)O4)no1 [Compound 144, N-(2,2-difluoro-5H-[1,3]dioxolo[4′,5′:4,5]benzo[1,2-d]imidazol-6-yl)-5-(1,3-dimethyl-1H-pyrazol-4-yl)isoxazole-3-carboxamide]
200 to 1000	200 to 1000	O=C(Nc1nc2cc3c(cc2[nH]1)OC(F)(F)O3)c1csc(C2CCN(c3ncnc4ccsc34)CC2)n1 [Compound 97, N-(2,2-difluoro-5H-[1,3]dioxolo[4′,5′:4,5]benzo[1,2-d]imidazol-6-yl)-2-(1-(thieno[3,2-d]pyrimidin-4-yl)piperidin-4-yl)thiazole-4-carboxamide]
200 to 1000	200 to 1000	CS(=O)(=O)c1ccc(C(=O)Nc2nc3cc4c(cc3[nH]2)OC(F)(F)O4)s1 [Compound 85, N-(2,2-difluoro-5H-[1,3]dioxolo[4′,5′:4,5]benzo[1,2-d]imidazol-6-yl)-5-(methylsulfonyl)thiophene-2-carboxamide]
< 200	< 200	O=C(Nc1nc2cc3c(cc2[nH]1)OC(F)(F)O3)c1ccc(S(=O)(=O)N2CCOCC2)cc1 [Compound 117, N-(2,2-difluoro-5H-[1,3]dioxolo[4′,5′:4,5]benzo[1,2-d]imidazol-6-yl)-4-(morpholinosulfonyl)benzamide]
< 200	> 1000	O=C(Nc1nc2cc3c(cc2[nH]1)OC(F)(F)O3)c1ccc(-n2cccn2)cc1 [Compound 142, N-(2,2-difluoro-5H-[1,3]dioxolo[4′,5′:4,5]benzo[1,2-d]imidazol-6-yl)-4-(1H-pyrazol-1-yl)benzamide]
200 to 1000	200 to 1000	Cc1ccc(C(=O)Nc2nc(C(=O)Nc3nc4cc5c(cc4[nH]3)OC(F)(F)O5)ns2)cc1 [Compound 89, N-(2,2-difluoro-5H-[1,3]dioxolo[4′,5′:4,5]benzo[1,2-d]imidazol-6-yl)-5-(4-methylbenzamido)-1,2,4-thiadiazole-3-carboxamide]
200 to 1000	> 1000	O=C(Nc1nc2cc3c(cc2[nH]1)OC(F)(F)O3)c1c(F)cccc1F [Compound 54, N-(2,2-difluoro-5H-[1,3]dioxolo[4′,5′:4,5]benzo[1,2-d]imidazol-6-yl)-2,6-difluorobenzamide]
< 200	200 to 1000	O=C(Nc1nc2cc3c(cc2[nH]1)OC(F)(F)O3)c1coc(-c2cccs2)n1 [Compound 136, N-(2,2-difluoro-5H-[1,3]dioxolo[4′,5′:4,5]benzo[1,2-d]imidazol-6-yl)-2-(thiophen-2-yl)oxazole-4-carboxamide]
< 200	< 200	NC(=O)c1ccc(C(=O)Nc2nc3cc4c(cc3[nH]2)OC(F)(F)O4)cc1 [Compound 111, N^1-(2,2-difluoro-5H-[1,3]dioxolo[4′,5′:4,5]benzo[1,2-d]imidazol-6-yl)terephthalamide]
200 to 1000	> 1000	Cc1ccccc1C(=O)Nc1nc2cc3c(cc2[nH]1)OC(F)(F)O3 [Compound 68, N-(2,2-difluoro-5H-[1,3]dioxolo[4′,5′:4,5]benzo[1,2-d]imidazol-6-yl)-2-methylbenzamide]
> 1000	> 1000	COc1ccc(C(=O)Nc2nc(C(=O)Nc3nc4cc5c(cc4[nH]3)OC(F)(F)O5)ns2)cc1 [Compound 90, N-(2,2-difluoro-5H-[1,3]dioxolo[4′,5′:4,5]benzo[1,2-d]imidazol-6-yl)-5-(4-methoxybenzamido)-1,2,4-thiadiazole-3-carboxamide]
< 200	200 to 1000	O=C(Nc1nc2cc3c(cc2[nH]1)OC(F)(F)O3)c1nc(NC(=O)c2ccccc2OC(F)(F)F)n[nH]1 [Compound 52, N-(2,2-difluoro-5H-[1,3]dioxolo[4′,5′:4,5]benzo[1,2-d]imidazol-6-yl)-3-(2-(trifluoromethoxy)benzamido)-1H-1,2,4-triazole-5-carboxamide]
> 1000	> 1000	COc1cc(Nc2ncc(C(=O)Nc3nc4cc5c(cc4[nH]3)OC(F)(F)O5)s2)nc(OC)n1 [Compound 99, N-(2,2-difluoro-5H-[1,3]dioxolo[4′,5′:4,5]benzo[1,2-d]imidazol-6-yl)-2-((2,6-dimethoxypyrimidin-4-yl)amino)thiazole-5-carboxamide]
